Results from US11773078B2, “Furin inhibitors” (Glaxosmithkline Intellectual Property Development Limited, priority 2018, dated 2023).

Experiments:
[1] = molecular target: T1, furin (endogenous protease) in U20S cells (Homo sapiens, UniProt P09958); test: Furin cell-based assay (image-based, Golgi-targeted GFP with BMP10 furin/PCSK cleavage site); settings: 24-hour incubation, read-out: furin golgi cell pXC50 (converted);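 also: Read-out is mean GFP fluorescence of Golgi puncta per cell by high-content imaging, retained when furin inhibited, over an eleven-point 0.00017–10 µM series, four-parameter fit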
T1 construct: the endogenous protease cleaves GFP; endogenous in cells; host or cells: U2OS cells transduced with a BacMam reporter

[2] = molecular target: T2, Furin (108-574-Tev-Flag-His) enzyme (Homo sapiens, UniProt P09958); test: Furin enzyme assay; format: biochemical; settings: for IC50: read-out: furin enzyme pIC50 (converted)
T2 construct: Furin (108-574-Tev-Flag-His) enzyme was expressed and purified from CHO cells; TEV cleavage site (C); FLAG (C); His (C); made in house; host or cells: CHO cells
How it was run: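 CHO-expressed, purified furin construct at 40 pM in 100 mM HEPES pH7.5, 1 mM CaCl2, 0.005% Triton X-100. Eleven-point 1:3 series, 0.00017–10 μM final, incubated 2 h at room temperature and read on Envision. pXC50 from four-parameter fit.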

T1 sequence (P09958 108-794): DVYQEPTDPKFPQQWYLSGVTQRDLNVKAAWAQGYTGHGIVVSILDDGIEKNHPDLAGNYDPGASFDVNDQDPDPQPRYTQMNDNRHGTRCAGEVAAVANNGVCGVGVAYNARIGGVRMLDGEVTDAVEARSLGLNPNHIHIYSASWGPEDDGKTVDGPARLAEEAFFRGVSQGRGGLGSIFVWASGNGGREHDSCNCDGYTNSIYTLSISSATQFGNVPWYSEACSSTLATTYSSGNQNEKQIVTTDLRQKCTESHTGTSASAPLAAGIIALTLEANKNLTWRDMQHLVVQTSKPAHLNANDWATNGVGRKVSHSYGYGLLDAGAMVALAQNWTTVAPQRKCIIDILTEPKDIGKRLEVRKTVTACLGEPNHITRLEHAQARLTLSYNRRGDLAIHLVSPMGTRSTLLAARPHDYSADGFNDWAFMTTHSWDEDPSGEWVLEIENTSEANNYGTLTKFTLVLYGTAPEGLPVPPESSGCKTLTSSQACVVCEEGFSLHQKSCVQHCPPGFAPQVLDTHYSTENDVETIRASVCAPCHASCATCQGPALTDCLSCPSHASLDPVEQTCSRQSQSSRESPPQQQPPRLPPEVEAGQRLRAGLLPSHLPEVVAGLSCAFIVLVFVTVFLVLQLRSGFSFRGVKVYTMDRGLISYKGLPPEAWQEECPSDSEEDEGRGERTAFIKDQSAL
T2 sequence (P09958 108-574): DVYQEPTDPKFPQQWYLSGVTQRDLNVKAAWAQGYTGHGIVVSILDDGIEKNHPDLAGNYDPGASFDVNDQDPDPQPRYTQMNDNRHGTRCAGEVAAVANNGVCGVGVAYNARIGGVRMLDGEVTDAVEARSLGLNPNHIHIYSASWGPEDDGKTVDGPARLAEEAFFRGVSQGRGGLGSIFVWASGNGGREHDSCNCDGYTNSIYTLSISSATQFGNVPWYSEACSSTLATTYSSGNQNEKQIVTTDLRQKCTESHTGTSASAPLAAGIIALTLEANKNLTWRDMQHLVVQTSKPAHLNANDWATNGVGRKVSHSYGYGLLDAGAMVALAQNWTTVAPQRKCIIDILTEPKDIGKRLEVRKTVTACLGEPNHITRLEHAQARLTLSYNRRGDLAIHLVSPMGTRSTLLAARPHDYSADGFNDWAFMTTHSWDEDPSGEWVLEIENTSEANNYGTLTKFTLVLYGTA

SMILES	EC50 [1]	furin enzyme pIC50 [2]	IC50 [2]
CN1CCN(c2ncc(Oc3cc(CN4CCC(CC(=O)O)CC4)cc(-c4cc(Cl)cc(Cl)c4)n3)cc2F)CC1 [Example 151, 2-(1-((2-(3,5-dichlorophenyl)-6-((5-fluoro-6-(4-methylpiperazin-1-yl)pyridin-3-yl)oxy)pyridin-4-yl)methyl)piperidin-4-yl)acetic acid]	100 nM	8.2	–
CN1CCN(c2ncc(Oc3cc(CN4CCO[C@H](CCO)CC4)cc(-c4cc(Cl)cc(Cl)c4)n3)cn2)CC1 [Example 153, (S)-2-(4-((2-(3,5-dichlorophenyl)-6-((2-(4-methylpiperazin-1-yl)pyrimidin-5-yl)oxy)pyridin-4-yl)methyl)-1,4-oxazepan-7-yl)ethanol]	15.8 nM	7.9	–
CC(=O)N[C@@H]1[C@@H]2CN(Cc3cc(Oc4cnc(N5CCCN(C)CC5)nc4)nc(-c4cc(Cl)cc(Cl)c4)c3)C[C@@H]21 [Example 154, N-((1R,5S,6r)-3-((2-(3,5-dichlorophenyl)-6-((2-(4-methyl-1,4-diazepan-1-yl)pyrimidin-5-yl)oxy)pyridin-4-yl)methyl)-3-azabicyclo[3.1.0]hexan-6-yl)acetamide]	50.1 nM	7.8	–
CN1CCCN(c2ccc(Oc3cc(CN4CCC(CC(=O)O)CC4)cc(-c4cc(Cl)cc(Cl)c4)n3)cn2)CC1 [Example 156, 2-(1-((2-(3,5-Dichlorophenyl)-6-((6-(4-methyl-1,4-diazepan-1-yl)pyridin-3-yl)oxy)pyridin-4-yl)methyl)piperidin-4-yl)acetic acid]	15.8 nM	8.8	–
NC1CCN(c2ncc(Oc3cc(CN4CCC(CC(=O)O)CC4)cc(-c4cc(Cl)cc(Cl)c4)n3)cn2)CC1 [Example 158, 2-(1-((2-((2-(4-Aminopiperidin-1-yl)pyrimidin-5-yl)oxy)-6-(3,5-dichlorophenyl)pyridin-4-yl)methyl)piperidin-4-yl)acetic acid]	79.4 nM	8.8	–
C[C@H]1CN(c2ncc(Oc3cc(CN4CCC(CC(=O)O)CC4)cc(-c4cc(Cl)cc(Cl)c4)n3)cn2)CCN1 [Example 159, (S)-2-(1-((2-(3,5-Dichlorophenyl)-6-((2-(3-methylpiperazin-1-yl)pyrimidin-5-yl)oxy)pyridin-4-yl)methyl)piperidin-4-yl)acetic acid]	25.1 nM	8.5	–
CC1(C)CN(c2ncc(Oc3cc(CN4CCC(CC(=O)O)CC4)cc(-c4cc(Cl)cc(Cl)c4)n3)cn2)CCN1 [Example 160, 2-(1-((2-(3,5-dichlorophenyl)-6-((2-(3,3-dimethylpiperazin-1-yl)pyrimidin-5-yl)oxy)pyridin-4-yl)methyl)piperidin-4-yl)acetic acid]	25.1 nM	8.8	–
O=C(O)CC1CCN(Cc2cc(Oc3cnc(N4CC5CNCC5C4)nc3)nc(-c3cc(Cl)cc(Cl)c3)c2)CC1 (stereo not drawn) [Example 161, 2-(1-((2-(3,5-dichlorophenyl)-6-((2-(hexahydropyrrolo[3,4-c]pyrrol-2(1H)-yl)pyrimidin-5-yl)oxy)pyridin-4-yl)methyl)piperidin-4-yl)acetic acid]	39.8 nM	8.3	–
O=C(O)CC1CCN(Cc2cc(Oc3cnc(N4CC5CC(C4)N5)nc3)nc(-c3cc(Cl)cc(Cl)c3)c2)CC1 [Example 162, 2-(1-((2-((2-(3,6-diazabicyclo[3.1.1]heptan-3-yl)pyrimidin-5-yl)oxy)-6-(3,5-dichlorophenyl)pyridin-4-yl)methyl)piperidin-4-yl)acetic acid]	79.4 nM	8.4	–
O=C(O)CC1CCN(Cc2cc(Oc3cnc(N4CC5CCC(C4)N5)nc3)nc(-c3cc(Cl)cc(Cl)c3)c2)CC1 [Example 163, 2-(1-((2-((2-(3,8-diazabicyclo[3.2.1]octan-3-yl)pyrimidin-5-yl)oxy)-6-(3,5-dichlorophenyl)pyridin-4-yl)methyl)piperidin-4-yl)acetic acid]	10 nM	8.7	–
O=C(O)CC1CCN(Cc2cc(Oc3cnc(N4CCNC5(CC5)C4)nc3)nc(-c3cc(Cl)cc(Cl)c3)c2)CC1 [Example 164, 2-(1-((2-((2-(4,7-diazaspiro[2.5]octan-7-yl)pyrimidin-5-yl)oxy)-6-(3,5-dichlorophenyl)pyridin-4-yl)methyl)piperidin-4-yl)acetic acid]	25.1 nM	–	3.98 nM
NC1(CO)CCN(c2ncc(Oc3cc(CN4CCC(CC(=O)O)CC4)cc(-c4cc(Cl)cc(Cl)c4)n3)cn2)CC1 [Example 165, 2-(1-((2-((2-(4-amino-4-(hydroxymethyl)piperidin-1-yl)pyrimidin-5-yl)oxy)-6-(3,5-dichlorophenyl)pyridin-4-yl)methyl)piperidin-4-yl)acetic acid]	31.6 nM	8.4	–
O=C(O)CC1CCN(Cc2cc(Oc3ccc(N4CCCNCC4)nc3)nc(-c3cc(Cl)cc(Cl)c3)c2)CC1 [Example 166, 2-(1-((2-((6-(1,4-Diazepan-1-yl)pyridin-3-yl)oxy)-6-(3,5-dichlorophenyl)pyridin-4-yl)methyl)piperidin-4-yl)acetic acid]	63.1 nM	8.5	–

The next lines start with the values.

EC50 [1]	furin enzyme pIC50 [2]	IC50 [2]	SMILES
15.8 nM	8.1	–	CC(=O)CC1CCN(Cc2cc(Oc3cnc(N4CCN(C)CC4)nc3)nc(-c3cc(Cl)cc(Cl)c3)c2)CC1 [Example 155, 1-(1-((2-(3,5-dichlorophenyl)-6-((2-(4-methylpiperazin-1-yl)pyrimidin-5-yl)oxy)pyridin-4-yl)methyl)piperidin-4-yl)propan-2-one]
1.26 nM	10.8	–	CC(=O)NCC1CCN(Cc2cc(Oc3ccc(N4CCN(C)CC4)nn3)nc(-c3cc(Cl)cc(Cl)c3)c2)CC1 [Example 157, N-((1-((2-(3,5-dichlorophenyl)-6-((6-(4-methylpiperazin-1-yl)pyridazin-3-yl)oxy)pyridin-4-yl)methyl)piperidin-4-yl)methyl)acetamide]
50.1 nM	8.3	–	CC(=O)NCC1CCN(Cc2cc(Oc3cnc(N4CCN(CCS(C)(=O)=O)CC4)nc3)cc(-c3cc(Cl)cc(Cl)c3)c2)CC1 [Example 167, N-((1-((3′,5′-Dichloro-5-((2-(4-(2-(methylsulfonyl)ethyl)piperazin-1-yl)pyrimidin-5-yl)oxy)-[1,1′-biphenyl]-3-yl)methyl)piperidin-4-yl)methyl)acetamide]
25.1 nM	9.3	–	CC(=O)NCC1CCN(Cc2cc(Oc3cnc(N4CCN(CCC(=O)O)CC4)nc3)cc(-c3cc(Cl)cc(Cl)c3)c2)CC1 [Example 168, 3-(4-(5-((5-((4-(Acetamidomethyl)piperidin-1-yl)methyl)-3′,5′-dichloro-[1,1′-biphenyl]-3-yl)oxy)pyrimidin-2-yl)piperazin-1-yl)propanoic acid]
1260 nM	–	0.0316 nM	CC(=O)NCC1CCN(Cc2cc(Oc3ccc(N4CCN(CCC(=O)O)CC4)nn3)nc(-c3cc(Cl)cc(Cl)c3)c2)CC1 [Example 169, 3-(4-(6-((4-((4-(acetamidomethyl)piperidin-1-yl)methyl)-6-(3,5-dichlorophenyl)pyridin-2-yl)oxy)pyridazin-3-yl)piperazin-1-yl)propanoic acid]
12.6 nM	–	0.794 nM	CC(=O)NCC1CCN(Cc2cc(Oc3cnc(N4CCN(CCC(N)=O)CC4)nc3)cc(-c3cc(Cl)cc(Cl)c3)c2)CC1 [Example 170, 3-(4-(5-((5-((4-(acetamidomethyl)piperidin-1-yl)methyl)-3′,5′-dichloro-[1,1′-biphenyl]-3-yl)oxy)pyrimidin-2-yl)piperazin-1-yl)propanamide]
2 nM	10.7	–	CNC(=O)NCC1CCN(Cc2cc(Oc3cnc(N4CCN(CCCO)CC4)nc3)nc(-c3cc(Cl)cc(Cl)c3)c2)CC1 [Example 171, 1-((1-((2-(3,5-dichlorophenyl)-6-((2-(4-(3-hydroxypropyl)piperazin-1-yl)pyrimidin-5-yl)oxy)pyridin-4-yl)methyl)piperidin-4-yl)methyl)-3-methylurea]
1.26 nM	–	0.398 nM	CC(=O)NCC1CCN(Cc2cc(Oc3cnc(N4CCN(CCC5(C(=O)O)CC5)CC4)nc3)nc(-c3cc(Cl)cc(Cl)c3)c2)CC1 [Example 173, 1-(2-(4-(5-((4-((4-(acetamidomethyl)piperidin-1-yl)methyl)-6-(3,5-dichlorophenyl)pyridin-2-yl)oxy)pyrimidin-2-yl)piperazin-1-yl)ethyl)cyclopropanecarboxylic acid]
20 nM	9.2	–	CC(=O)NCC1CCN(Cc2cc(Oc3ccc(N4CCN(CCC(C)C(=O)O)CC4)nc3)nc(-c3cc(Cl)cc(Cl)c3)c2)CC1 (stereo not drawn) [Example 174, 4-(4-(5-((4-((4-(acetamidomethyl)piperidin-1-yl)methyl)-6-(3,5-dichlorophenyl)pyridin-2-yl)oxy)pyridin-2-yl)piperazin-1-yl)-2-methylbutanoic acid]
3.98 nM	9	–	COC(=O)NC(=O)CCN1CCN(c2ccc(Oc3cc(CN4CCC(CNC(C)=O)CC4)cc(-c4cc(Cl)cc(Cl)c4)n3)cn2)CC1 [Example 176, methyl (3-(4-(5-((4-((4-(acetamidomethyl)piperidin-1-yl)methyl)-6-(3,5-dichlorophenyl)pyridin-2-yl)oxy)pyridin-2-yl)piperazin-1-yl)propanoyl)carbamate]
20 nM	9.2	–	O=C(O)CC1CCN(Cc2cc(Oc3cnc(N4CCN(CC(O)CO)CC4)nc3)nc(-c3cc(Cl)cc(Cl)c3)c2)CC1 (stereo not drawn) [Example 177, 2-(1-((2-(3,5-dichlorophenyl)-6-((2-(4-(2,3-dihydroxypropyl)piperazin-1-yl)pyrimidin-5-yl)oxy)pyridin-4-yl)methyl)piperidin-4-yl)acetic acid]
